Drawing on patent US20070161643A1, “Pyridin-2-one compounds useful as inhibitors of thrombin” (priority 2004, published 2007), this text covers IC50 for one molecule.

The target in the assay is T1, Human α-thrombin (Homo sapiens, UniProt P00734).
T1 construct: 12 μL of α-thrombin solution (Human α-thrombin, Sigma Chemical Co. or Hematologic Technologies); purchased Sigma Chemical Co. or Hematologic Technologies
As to the kind of experiment: Test B: Determination of thrombin inhibition with a chromogenic, robotic assay. It is filed as biochemical. Here is the method:
The thrombin inhibitor potency is measured with a chromogenic substrate method, in a Plato 3300 robotic microplate processor (Rosys AG, CH-8634 Hombrechtikon, Switzerland), using 96-well, half volume microtitre plates (Costar, Cambridge, Mass., USA; Cat No 3690). Stock solutions of test substance in DMSO (72 μL), 0.1-1 mmol/L, are diluted serially 1:3 (24+48 μL) with DMSO to obtain ten different concentrations, which are analysed as samples in the assay. 2 μL of test sample is diluted with 124 μL assay buffer, 12 μL of chromogenic substrate solution (S-2366, Chromogenix, Mölndal, Sweden) in assay buffer and finally 12 μL of α-thrombin solution (Human α-thrombin, Sigma Chemical Co. or Hematologic Technologies) in assay buffer, are added, and the samples mixed. The final assay concentrations are: test substance 0.00068-133 μmol/L, S-2366 0.30 mmol/L, α-thrombin 0.020 NIHU/mL. The linear absorbance increment during 40 minutes incubation at 37° C. is used for calculation of percentage inhibition for the test samples, as compared to blanks without inhibitor.

In the case of `Cc1ccc(C)c(CCNn2ccc(C)c(CC(=O)NCc3ccc(C(=N)N)cc3)c2=O)c1` [2(xi), N-(4-Carbamimidoylbenzyl)-2-{1-[2-(2,5-dimethylphenyl)ethylamino]-4-methyl-2-oxo-1,2-dihydropyridin-3-yl}acetamide], the IC50 (in general, the concentration that gives 50% inhibition) came to 92.2 nM.
